Experimental findings from ChEMBL document CHEMBL1134735, “Synthesis and photodynamic action of diphenyl-2,3-dihydroxychlorin: a potential tumor photosensitizer” (2001) are described below.

This assay in a line: The dark toxicity against 543 human galactophore carcinoma cells. It counts as functional.

As for `OC1c2cc3ccc([nH]3)c(-c3ccccc3)c3ccc(cc4nc(c(-c5ccccc5)c(n2)C1O)C=C4)[nH]3` (stereo unspecified), the IC90 was greater than 32 µg/mL.
